Test results taken from patent publication US9302988B2, “Fluoromethyl-substituted pyrrole carboxamides” (GRÜNENTHAL GMBH, priority 2012, dated 2016).

Target: T1, Human CaV2.2 channels (Homo sapiens, UniProt Q00975)
T1 construct: expressed in transfected cells
Assay: Fluorescent assay for CaV2.2 channels using potassium depolarization to induce channel opening (FLIPR, Fluo-4)
Type: cell-based
Settings: 3 μM test compound, 30 mM KCl, HEK293 cells stably expressing human CaV2.2; read-out: %-Inhib (CaV2.2) @3 μM @30 mM KCl
Method in brief: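 HEK293 cells stably co-expressing CaV2.2 with α2δ and β subunits plus Kir2.3 were Fluo-4 loaded, then preincubated 15 min at 25 °C with compound in 30 mM KCl buffer, pH 7.4. Depolarization was by adding buffer containing 210 mM KCl. Inhibition was taken from baseline-normalized peak fluorescence amplitude (ex 480/em 535 nm).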

T1 sequence (Q00975 whole entry): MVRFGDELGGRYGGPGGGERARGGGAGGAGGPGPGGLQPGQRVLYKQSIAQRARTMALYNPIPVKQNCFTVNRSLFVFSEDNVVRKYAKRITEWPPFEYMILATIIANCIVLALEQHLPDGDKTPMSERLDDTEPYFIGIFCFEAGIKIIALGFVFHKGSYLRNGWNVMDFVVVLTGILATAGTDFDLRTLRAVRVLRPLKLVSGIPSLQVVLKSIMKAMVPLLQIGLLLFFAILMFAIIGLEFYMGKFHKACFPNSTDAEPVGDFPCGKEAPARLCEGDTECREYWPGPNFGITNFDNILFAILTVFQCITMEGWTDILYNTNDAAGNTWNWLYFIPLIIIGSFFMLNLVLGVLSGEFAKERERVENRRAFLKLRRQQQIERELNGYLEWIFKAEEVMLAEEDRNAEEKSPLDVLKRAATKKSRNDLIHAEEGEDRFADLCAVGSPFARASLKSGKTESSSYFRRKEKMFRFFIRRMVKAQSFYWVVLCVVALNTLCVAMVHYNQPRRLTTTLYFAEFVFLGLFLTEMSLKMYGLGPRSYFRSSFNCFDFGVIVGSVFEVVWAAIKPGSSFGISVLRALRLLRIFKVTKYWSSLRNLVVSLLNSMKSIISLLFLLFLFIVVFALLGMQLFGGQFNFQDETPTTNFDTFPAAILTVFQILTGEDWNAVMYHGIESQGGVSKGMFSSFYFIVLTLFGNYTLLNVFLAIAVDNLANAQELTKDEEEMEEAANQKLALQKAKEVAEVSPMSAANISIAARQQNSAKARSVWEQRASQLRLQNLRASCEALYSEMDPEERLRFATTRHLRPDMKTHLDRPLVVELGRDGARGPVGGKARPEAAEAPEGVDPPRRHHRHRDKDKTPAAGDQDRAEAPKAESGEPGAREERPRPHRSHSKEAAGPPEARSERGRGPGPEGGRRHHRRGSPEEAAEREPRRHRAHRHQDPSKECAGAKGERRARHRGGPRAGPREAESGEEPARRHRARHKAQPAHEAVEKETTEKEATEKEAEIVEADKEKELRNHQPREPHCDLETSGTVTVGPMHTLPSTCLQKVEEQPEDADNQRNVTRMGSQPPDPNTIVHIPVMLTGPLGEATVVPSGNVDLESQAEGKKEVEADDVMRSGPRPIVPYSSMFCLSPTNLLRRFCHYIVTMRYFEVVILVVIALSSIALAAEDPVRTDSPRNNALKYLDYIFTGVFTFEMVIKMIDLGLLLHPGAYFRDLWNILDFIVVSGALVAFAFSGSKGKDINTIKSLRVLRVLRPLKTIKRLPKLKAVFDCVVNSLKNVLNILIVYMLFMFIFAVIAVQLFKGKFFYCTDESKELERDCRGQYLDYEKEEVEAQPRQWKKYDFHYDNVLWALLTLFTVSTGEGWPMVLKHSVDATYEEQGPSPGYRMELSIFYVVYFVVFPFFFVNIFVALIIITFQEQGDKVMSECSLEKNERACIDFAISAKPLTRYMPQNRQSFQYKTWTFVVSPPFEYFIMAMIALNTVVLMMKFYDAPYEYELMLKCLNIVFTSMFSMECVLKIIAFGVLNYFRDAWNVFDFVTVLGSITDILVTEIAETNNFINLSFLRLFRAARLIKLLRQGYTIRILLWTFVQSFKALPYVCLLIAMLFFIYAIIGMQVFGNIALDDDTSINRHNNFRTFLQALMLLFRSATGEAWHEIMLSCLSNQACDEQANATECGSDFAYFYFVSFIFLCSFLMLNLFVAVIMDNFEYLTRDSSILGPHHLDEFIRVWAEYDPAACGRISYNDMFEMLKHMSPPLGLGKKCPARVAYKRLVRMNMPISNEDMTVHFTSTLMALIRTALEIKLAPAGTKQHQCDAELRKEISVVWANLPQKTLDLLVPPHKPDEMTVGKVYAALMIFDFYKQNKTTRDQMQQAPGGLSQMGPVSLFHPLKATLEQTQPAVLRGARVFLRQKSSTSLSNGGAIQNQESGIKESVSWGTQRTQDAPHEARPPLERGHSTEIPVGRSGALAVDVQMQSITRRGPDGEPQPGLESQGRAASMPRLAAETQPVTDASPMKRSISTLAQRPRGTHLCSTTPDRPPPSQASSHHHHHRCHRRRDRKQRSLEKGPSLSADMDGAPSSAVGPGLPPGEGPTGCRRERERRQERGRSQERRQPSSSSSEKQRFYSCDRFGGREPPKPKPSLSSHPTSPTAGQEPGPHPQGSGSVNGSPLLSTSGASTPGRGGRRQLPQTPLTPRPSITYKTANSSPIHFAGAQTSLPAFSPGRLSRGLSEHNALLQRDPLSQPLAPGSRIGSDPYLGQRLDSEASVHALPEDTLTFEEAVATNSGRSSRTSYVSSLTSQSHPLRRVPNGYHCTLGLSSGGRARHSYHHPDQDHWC
T1 sequence (P54289 25-1103, further chain): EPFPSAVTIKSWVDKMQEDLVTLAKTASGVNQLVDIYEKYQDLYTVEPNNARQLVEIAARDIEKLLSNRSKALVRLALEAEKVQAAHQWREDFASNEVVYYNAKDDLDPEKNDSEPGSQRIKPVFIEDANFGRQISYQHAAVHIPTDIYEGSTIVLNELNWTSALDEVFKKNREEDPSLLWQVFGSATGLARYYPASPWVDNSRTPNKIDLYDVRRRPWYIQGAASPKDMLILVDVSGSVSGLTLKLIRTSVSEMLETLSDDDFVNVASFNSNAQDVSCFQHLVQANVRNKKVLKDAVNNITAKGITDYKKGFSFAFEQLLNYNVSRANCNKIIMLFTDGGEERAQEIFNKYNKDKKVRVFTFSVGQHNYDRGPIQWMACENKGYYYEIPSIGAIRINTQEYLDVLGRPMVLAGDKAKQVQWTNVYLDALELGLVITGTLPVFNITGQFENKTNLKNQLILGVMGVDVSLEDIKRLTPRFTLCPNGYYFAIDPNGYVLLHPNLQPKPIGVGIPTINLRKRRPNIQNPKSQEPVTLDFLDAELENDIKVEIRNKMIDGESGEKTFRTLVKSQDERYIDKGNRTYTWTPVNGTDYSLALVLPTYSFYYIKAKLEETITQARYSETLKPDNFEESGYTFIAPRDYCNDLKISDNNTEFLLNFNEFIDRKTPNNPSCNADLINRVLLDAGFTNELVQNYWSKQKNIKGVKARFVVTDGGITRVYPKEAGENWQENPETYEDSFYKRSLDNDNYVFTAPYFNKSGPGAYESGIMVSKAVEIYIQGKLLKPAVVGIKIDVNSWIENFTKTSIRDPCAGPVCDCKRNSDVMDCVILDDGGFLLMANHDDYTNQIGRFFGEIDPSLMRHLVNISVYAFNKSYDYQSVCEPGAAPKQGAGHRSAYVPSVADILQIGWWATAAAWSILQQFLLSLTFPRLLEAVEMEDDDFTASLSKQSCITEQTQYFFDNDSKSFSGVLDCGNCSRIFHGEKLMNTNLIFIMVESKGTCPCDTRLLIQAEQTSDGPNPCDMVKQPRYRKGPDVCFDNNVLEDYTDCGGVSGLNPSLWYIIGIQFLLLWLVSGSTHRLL
T1 sequence (P54284 whole entry, further chain): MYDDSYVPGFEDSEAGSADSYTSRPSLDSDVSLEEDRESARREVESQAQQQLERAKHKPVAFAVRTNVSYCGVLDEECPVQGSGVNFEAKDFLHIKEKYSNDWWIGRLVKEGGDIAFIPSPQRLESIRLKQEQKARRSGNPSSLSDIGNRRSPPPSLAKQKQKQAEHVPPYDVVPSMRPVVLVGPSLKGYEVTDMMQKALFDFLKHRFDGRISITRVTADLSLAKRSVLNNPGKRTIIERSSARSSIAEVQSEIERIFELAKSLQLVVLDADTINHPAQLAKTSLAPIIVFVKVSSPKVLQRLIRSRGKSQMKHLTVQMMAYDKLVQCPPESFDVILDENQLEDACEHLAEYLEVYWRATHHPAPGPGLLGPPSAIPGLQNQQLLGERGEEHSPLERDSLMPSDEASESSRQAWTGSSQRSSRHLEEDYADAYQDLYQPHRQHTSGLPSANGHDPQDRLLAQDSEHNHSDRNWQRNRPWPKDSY

Cc1c(-c2ccc(Cl)cc2)c(C(=O)N2CCOCC2)n(Cc2ccccc2)c1C(F)F [SC-41, [1-Benzyl-3-(4-chlorophenyl)-5-(difluoro-methyl)-4-methyl-1H-pyrrol-2-yl]-morpholin-4-yl-methanone]
inhibition at 3 µM: > 95%

Cc1c(-c2ccc(Cl)cc2F)c(C(=O)N2CCOCC2)n(Cc2ccccc2)c1C(F)(F)F [SC-62, [1-Benzyl-3-(4-chloro-2-fluoro-phenyl)-4-methyl-5-(trifluoromethyl)-1H-pyrrol-2-yl]-morpholin-4-yl-methanone]
inhibition at 3 µM: > 95%

CN(CC(C)(CO)CO)C(=O)c1c(-c2ccc(Cl)cc2)cc(C(F)(F)F)n1Cc1ccccc1 [SC-183, 1-Benzyl-3-(4-chlorophenyl)-N-[3-hydroxy-2-(hydroxymethyl)-2-methyl-propyl]-N-methyl-5-(trifluoromethyl)-1H-pyrrole-2-carboxylic acid amide]
inhibition at 3 µM: > 95%

Cc1cc(CN(C)C(=O)c2c(-c3ccc(Cl)cc3)c(C)c(C(F)(F)F)n2Cc2ccccc2)no1 [SC-142, 1-Benzyl-3-(4-chlorophenyl)-N,4-dimethyl-N-[(5-methyl-isoxazol-3-yl)-methyl]-5-(trifluoromethyl)-1H-pyrrole-2-carboxylic acid amide]
inhibition at 3 µM: > 95%

Cc1c(-c2ccc(Cl)cc2)c(C(=O)N(C)CC2CCC[C@@H]2O)n(Cc2ccccc2)c1C(F)(F)F (stereo partly drawn) [SC-135, 1-Benzyl-3-(4-chlorophenyl)-N-[[(2S)-2-hydroxy-cyclopentyl]-methyl]-N,4-dimethyl-5-(trifluoromethyl)-1H-pyrrole-2-carboxylic acid amide]
inhibition at 3 µM: > 95%

Cc1c(-c2ccc(F)cc2)c(C(=O)N(C)CCS(C)(=O)=O)n(Cc2ccccc2)c1C(F)(F)F [SC-219, 1-Benzyl-3-(4-fluorophenyl)-N,4-dimethyl-N-(2-methylsulfonyl-ethyl)-5-(trifluoromethyl)-1H-pyrrole-2-carboxylic acid amide]
inhibition at 3 µM: > 95%

Cc1c(-c2ccc(Cl)cc2F)c(C(=O)N2CC(O)C2)n(Cc2ccccc2)c1C(F)(F)F [SC-154, [1-Benzyl-3-(4-chloro-2-fluoro-phenyl)-4-methyl-5-(trifluoromethyl)-1H-pyrrol-2-yl]-(3-hydroxy-azetidin-1-yl)-methanone]
inhibition at 3 µM: 75 to 95%

O=C(c1c(-c2ccc(Cl)cc2)cc(C(F)(F)F)n1Cc1ccccc1)N1CCC(CO)C1 (centres unmarked) [SC-181, [1-Benzyl-3-(4-chlorophenyl)-5-(trifluoromethyl)-1H-pyrrol-2-yl]-[3-(hydroxymethyl)-pyrrolidin-1-yl]-methanone]
inhibition at 3 µM: 75 to 95%

O=C(c1c(-c2ccc(Cl)cc2)cc(C(F)(F)F)n1Cc1cccc(Cl)c1)N1CCOCC1 [SC-74, [3-(4-Chlorophenyl)-1-[(3-chlorophenyl)-methyl]-5-(trifluoromethyl)-1H-pyrrol-2-yl]-morpholin-4-yl-methanone]
inhibition at 3 µM: > 95%

CN(C)C(=O)c1c(-c2ccc(Cl)cc2)cc(C(F)(F)F)n1Cc1ccccc1 [SC-80, 1-Benzyl-3-(4-chlorophenyl)-N,N-dimethyl-5-(trifluoromethyl)-1H-pyrrole-2-carboxylic acid amide]
inhibition at 3 µM: 75 to 95%

CN(C(=O)c1c(-c2ccc(Cl)cc2)cc(C(F)(F)F)n1Cc1ccccc1)C(C)(C)CCO [SC-184, 1-Benzyl-3-(4-chlorophenyl)-N-(3-hydroxy-1,1-dimethyl-propyl)-N-methyl-5-(trifluoromethyl)-1H-pyrrole-2-carboxylic acid amide]
inhibition at 3 µM: 75 to 95%

Cc1c(-c2ccc(Cl)cc2)c(C(=O)N(C)CCC(C)(C)O)n(Cc2ccccc2)c1C(F)(F)F [SC-113, 1-Benzyl-3-(4-chlorophenyl)-N-(3-hydroxy-3-methyl-butyl)-N,4-dimethyl-5-(trifluoromethyl)-1H-pyrrole-2-carboxylic acid amide]
inhibition at 3 µM: > 95%

Cc1c(-c2ccc(F)cc2)c(C(=O)N2CCOC(C)(C)C2)n(Cc2ccccc2)c1C(F)(F)F [SC-225, [1-Benzyl-3-(4-fluorophenyl)-4-methyl-5-(trifluoromethyl)-1H-pyrrol-2-yl]-(2,2-dimethyl-morpholin-4-yl)-methanone]
inhibition at 3 µM: > 95%

Cc1c(-c2ccc(C#N)cc2F)c(C(=O)N2CCOCC2)n(Cc2ccccc2)c1C(F)(F)F [SC-264, 4-[1-Benzyl-4-methyl-2-(morpholine-4-carbonyl)-5-(trifluoromethyl)-1H-pyrrol-3-yl]-3-fluoro-benzonitrile]
inhibition at 3 µM: 75 to 95%

Cc1c(-c2ccc(Cl)cc2)c(C(=O)N(C)Cc2nccn2C)n(Cc2ccccc2)c1C(F)(F)F [SC-148, 1-Benzyl-3-(4-chlorophenyl)-N,4-dimethyl-N-[(1-methyl-1H-imidazol-2-yl)-methyl]-5-(trifluoromethyl)-1H-pyrrole-2-carboxylic acid amide]
inhibition at 3 µM: > 95%

COC1CCN(C(=O)c2c(-c3ccc(Cl)cc3)cc(C(F)(F)F)n2Cc2ccccc2)CC1 [SC-208, [1-Benzyl-3-(4-chlorophenyl)-5-(trifluoromethyl)-1H-pyrrol-2-yl]-(4-methoxy-piperidin-1-yl)-methanone]
inhibition at 3 µM: > 95%

Cc1c(-c2ccc(C(F)(F)F)cc2)c(C(=O)N2CCOC(C)(C)C2)n(Cc2ccccc2)c1C(F)(F)F [SC-234, [1-Benzyl-4-methyl-5-(trifluoromethyl)-3-[4-(trifluoromethyl)-phenyl]-1H-pyrrol-2-yl]-(2,2-dimethyl-morpholin-4-yl)-methanone]
inhibition at 3 µM: 75 to 95%

Cc1c(-c2ccc(F)cc2)c(C(=O)N2CC(O)C2)n(Cc2ccccc2)c1C(F)(F)F [SC-223, [1-Benzyl-3-(4-fluorophenyl)-4-methyl-5-(trifluoromethyl)-1H-pyrrol-2-yl]-(3-hydroxy-azetidin-1-yl)-methanone]
inhibition at 3 µM: 75 to 95%

Cc1c(-c2ccc(F)cc2)c(C(=O)N(C)CC2CCOC2)n(Cc2ccccc2)c1C(F)(F)F (centres unmarked) [SC-226, 1-Benzyl-3-(4-fluorophenyl)-N,4-dimethyl-N-(tetrahydro-furan-3-yl-methyl)-5-(trifluoromethyl)-1H-pyrrole-2-carboxylic acid amide]
inhibition at 3 µM: > 95%

CS(=O)(=O)CCNC(=O)c1c(-c2ccc(Cl)cc2)cc(C(F)(F)F)n1Cc1ccccc1 [SC-191, 1-Benzyl-3-(4-chlorophenyl)-N-(2-methylsulfonyl-ethyl)-5-(trifluoromethyl)-1H-pyrrole-2-carboxylic acid amide]
inhibition at 3 µM: 75 to 95%

CN(CC(C)(C)CN)C(=O)c1c(-c2ccc(Cl)cc2)cc(C(F)(F)F)n1Cc1ccccc1 [SC-188, N-(3-Amino-2,2-dimethyl-propyl)-1-benzyl-3-(4-chlorophenyl)-N-methyl-5-(trifluoromethyl)-1H-pyrrole-2-carboxylic acid amide]
inhibition at 3 µM: 75 to 95%

Cc1c(-c2ccc(Cl)cc2)c(C(=O)NC2(CO)CC2)n(Cc2ccccc2)c1C(F)(F)F [SC-16, 1-Benzyl-3-(4-chlorophenyl)-N-[1-(hydroxymethyl)-cyclopropyl]-4-methyl-5-(trifluoromethyl)-1H-pyrrole-2-carboxylic acid amide]
inhibition at 3 µM: 75 to 95%

CN(CC(C)(C)C)C(=O)c1c(-c2ccc(Cl)cc2)cc(C(F)(F)F)n1Cc1cccc(S(C)(=O)=O)c1 [SC-266, 3-(4-Chlorophenyl)-N-(2,2-dimethyl-propyl)-N-methyl-1-[(3-methylsulfonyl-phenyl)-methyl]-5-(trifluoromethyl)-1H-pyrrole-2-carboxylic acid amide]
inhibition at 3 µM: 75 to 95%
